# Experimental data from patent publication US20180235213A1, “PLANT HORMONE APPLICATION” (The State of Israel Ministry of Agriculture & Rural …, priority 2015, published 2018).
# Columns and labels:
# [1] = Mass spectrometry analysis of GR24 test solutions (molecular stability); assay type: physicochemical
# Description: Mass spectrometry (MS) analysis was performed to GR24 test solutions using the Orbitrap XL (Thermo Fisher Scientific). The samples were injected directly using direct spray injection probe, in 50% acetonitrile solution and at […] flow rate. A full scan was acquired to detect the GR24 peaks, at 60,000 resolution, Maximum ion fill time settings were 300 ms for the high resolution full scan in the Orbitrap analyzer. The spectra are sum of 10 sec acquisition. Results observed by Xcalibur© software of Thermo Fisher Scientific Inc. version 2.0.7. were analyzed manually.
# Next, GR24 was stabilized with Hydroxypropyl Cellulose (HPC), which is a […] medium. Granular HPC [Sigma-Aldrich Israel Ltd., CAS-No. 9004-64-2] (1 g) was ground to a fine powder using a mortar and pestle, mixed with sterile distilled water to make about 10 mL of gel, and then allowed to stand for 1 day for complete dissolution at room temperature. Stability of GR24 was tested by both biological activity of the strigolactone and by assessing the molecule using LC-MS.
# [2] = system: Picual olives; test: Application of strigolactone analogs by irrigation to olive seedlings; assay type: in vivo, Olea europaea L.; conditions: for number of growing buds / lateral branches: irrigation to roots twice a week for 6 weeks, 0.03 and 0.3 μM, vs control
# Description: The effect of application of various analogues of strigolactone (SL) on olives, given to roots by irrigation was examined. Three different SL analogs; […] The seedlings were rooted from cuttings and hardened, and were about 6 months old at the time of the experiment. Growth soil mixture was used as in the nursery. Each strigolactone analog was dissolved in acetone to give a 5.6 mM solution. This solution was then further diluted with distilled water to 0.03 and 0.3 μM. The diluted solution was injected to the roots twice a week for 6 weeks, and subsequently all the growing buds were counted. For each treatment (treated and control groups) 10 plants were measured. Experiments were repeated three times.
# [3] = system: Orobanche aegyptiaca seeds; test: Orobanche Germination Assay (biological activity after stress treatments); assay type: in vivo
# Description: The implementation of the strigolactone analogs necessitates a degree of material stability, to ensure their activity on the plant under various growth conditions. Accordingly, the stability of the strigolactone analog GR24 was tested under different environmental conditions. GR24 in acetone stock solution of 5.6 mM was diluted in double distilled water (DDW) or HPC pre-made gel to a concentration of 0.56 μM in eppendorf tubes and was subjected to the following treatments:
# GR24 solutions of 0.56 μM, diluted either in DDW or in HPC pre-made gel in eppendorf tubes were incubated in a dry block heater at temperatures of 4° C., 20° C., 40° C., 60° C. digitally set for periods of 3 h, 1 d, 2 d, 4 d, 5 d and 7 d under ambient light.
# GR24 solutions of 0.56 μM, diluted either in DDW or in HPC pre-made gel, each in quartz tubes (15 replicates for each treatment) were exposed to UV radiation of λ=312 nm under UV lamp of 600 or 857 μE intensity for periods of 15 min, 30 min or 18 h.
# Biological activity was determined by Orobanche Germination Assay: Approximately 30 to 50 seeds of Orobanche aegyptiaca were spread on a glass fiber filter paper disk (9-mm diameter) and put into sterile petri dishes (9-cm diameter) lined with Whatman filter paper wetted with 3 mL of demineralized water. Petri dishes were sealed with parafilm and incubated at 27° C. for preconditioning. After one week of preconditioning period, the glass fiber filter paper disks with Orobanche seeds were removed from the petri dish and dried for 20 min to remove surplus moisture. The disks were transferred to another petri dish within a filter paper ring (outer diameter of 9 cm; inner diameter of 8 cm) wetted with 0.9 mL of water, which maintained a moist environment during the germination bioassay. Forty microliters of the GR24 test solutions were added to the disks. Untreated GR24 at a 0.56 μM concentration was used as a positive control, water or HPC pre-made gel as negative controls. Germination percent was calculated using the counter cell analysis of the IMAGEJ (http://www.//rsbweb.nih.gov/ij/) software. Germinated seeds were distinguished from non-germinated seeds according to the seedling radicles, which are a few millimeters long and visible under a stereomicroscope (Leica MZFLIII, Leica Microsystems, GmbH).
# For each of the GR24 treatments fifteen replicates with 30-40 seeds were tested per treatment with 40 μl of 0.56 μM GR24 test solutions pre-treated as described above. The experiment was repeated three times (n=450 seeds).
# Next, GR24 was stabilized with Hydroxypropyl Cellulose (HPC), which is a […] medium. Granular HPC [Sigma-Aldrich Israel Ltd., CAS-No. 9004-64-2] […]
# [4] = system: olive seedling; test: Application to olive seedling stem under greenhouse conditions (parafilm, flexible or rigid tubes); conditions: in vivo
# Description: EGO10 either with PVAc, or HPC+glycerin were applied on olive seedling stem by the use of parafilm cover as the apparatus, under greenhouse conditions (FIG. 15). Greenhouse conditions include controlled room temperature of 25° C. In each experiment, 10 plants were used for each treatment. The substances were applied on the stem by a spatula and covered with parafilm.
# In attempt to improve the performance of the apparatus, different substances and different cover were used. Four formulations were developed and tested. These formulations are based on polysaccharide-sorbent-humidifier substances while the main difference between them is the viscosity of the final product and the ability to retain and release of the active ingredient (EGO 10). […] The cover consisted of a flexible plastic tube that was cut (FIG. 16A), placed on the seedling stem (FIG. 16B) and wrapped with transparent plaster (FIG. 16C). The plastic tubes were filled with the experimental material (FIG. 16D). Moist cotton was placed on both sides of the tubes to minimize water evaporation (FIG. 16E and FIG. 16F). Bud outgrowth was measured for 30 days.
# Rigid plastic tubes were tested in order to determine their efficiency as a delivery device for application of the hormone formulations to plants. At first, eppendorf tubes served as prototype. The tubes ware cut from top to bottom and placed on the stem of seedlings. Each tube was sealed with a small moist cotton at the bottom, filled with 1 ml of the examined material and finally covered with transparent plastic tape (FIGS. 17A-17E). The tubes were filled with (HPC+glycerin), or PVAc and EGO10 In each experiment, 10 plants were used for each treatment. Greenhouse conditions include controlled room temperature of 25° C.
# EGO10 (10 μM) or acetone control together with HPC+glycerin or PVAc were applied on the stem of olive cuttings by the use of rigid plastic tubes as described in Example 10 above.
# Bud outgrowth of olive cuttings was measured until day 30.
Molecule,"structure of the molecule in HPC medium (LC-MS) ([1]; GR24 in HPC, under the examination conditions)","molecular stability (MS) ([1]; long term exposure (over 5 days) to temperatures above 40° C., acidic pH solutions, UV irradiation)",number of growing buds / lateral branches [2],"concentration at which the effect was most prominent ([2]; irrigation twice a week, 0.03 and 0.3 μM tested) [µM]","biological activity (Orobanche germination) after stress ([3]; 0.56 μM, long term exposure (over 5 days) to temperatures above 40° C., acidic pH solutions, UV irradiation)",biological activity in HPC medium ([3]; GR24 in HPC pre-made gel),seedling outgrowth with medium plus acetone control [4]
"CC1=C[C@H](O/C=C2/C(=O)O[C@@H]3c4ccccc4C[C@H]23)OC1=O (relative stereo) [GR24, (3aR*,8bS*,E)-3-(((R*)-4-methyl-5-oxo-2,5-dihydrofuran-2-yloxy)-methylene)-3,3a,4,8b-tetrahydro-2H-indeno[1,2-b]furan-2-one, reference compound]",remained intact,molecularly degrading,significant reduction in number of lateral branches,0.03,loses biological activity,stabilized GR24 by increasing its biological activity,–
"CC1=CC(O/C=C2/C(=O)c3c(c4cc(-c5scc6c5OCCO6)ccc4n3C)C2C)OC1=O (centres unmarked) [ST362, (2E)-2-[(2,5-dihydro-4-methyl-5-oxofuran-2-yloxy)methylene]-1,2-dihydro-7-(2,3-dihydrothieno[3,4-b][1,4]dioxin-7-yl)-1,4-dimethyl-cyclopenta[b]indole-3-(4H)-one]",–,–,"similar, albeit less potent effect",–,–,–,–
polyvinyl acetate [PVAc],–,–,–,–,–,–,led to inhibition of seedling outgrowth
